Where two headings read alike, the source gives them in different places.
Experiments:
[1] = biological target: T1, androgen receptor (AR) (Homo sapiens, UniProt P10275); test: Cellular in vitro assay, GAL4-AR chimera luciferase reporter in CHO K1 cells (selectivity); assay type: cell-based; conditions: antagonism vs dihydrotestosterone; CHO K1 GAL4-AR LBD luciferase reporter
T1 construct: of the androgen receptor (AR, amino acids 667-919); expressed in transfected cells; host or cells: CHO K1
T1 sequence (P10275 668-920): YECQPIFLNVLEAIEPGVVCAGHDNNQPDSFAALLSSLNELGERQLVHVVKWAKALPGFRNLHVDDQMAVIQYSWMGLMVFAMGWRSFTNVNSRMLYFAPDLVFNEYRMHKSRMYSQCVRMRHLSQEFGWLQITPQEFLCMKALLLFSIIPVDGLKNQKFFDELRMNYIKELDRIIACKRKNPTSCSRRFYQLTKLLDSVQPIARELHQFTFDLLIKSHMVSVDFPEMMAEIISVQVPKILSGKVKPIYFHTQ
Method in brief: (§1)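 CHO K1 cells stably expressing GAL4 DNA-binding domain fused to human MR, PR or AR ligand-binding domains plus GAL4-driven firefly luciferase; compounds added 10–30 min before agonist (aldosterone, progesterone or dihydrotestosterone), luciferase read after 5–6 h; IC50 from sigmoidal concentration–response curves.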

[2] = biological target: T2, human mineralocorticoid receptor (MR) (Homo sapiens, UniProt P08235); test: Cellular in vitro assay, GAL4-MR chimera luciferase reporter in CHO K1 cells (inhibitory MR activity); assay type: cell-based; conditions: antagonism vs aldosterone; CHO K1 GAL4-MR LBD luciferase reporter
T2 construct: expressed in transfected cells; host or cells: CHO K1
T2 sequence (P08235 734-984 limits assumed): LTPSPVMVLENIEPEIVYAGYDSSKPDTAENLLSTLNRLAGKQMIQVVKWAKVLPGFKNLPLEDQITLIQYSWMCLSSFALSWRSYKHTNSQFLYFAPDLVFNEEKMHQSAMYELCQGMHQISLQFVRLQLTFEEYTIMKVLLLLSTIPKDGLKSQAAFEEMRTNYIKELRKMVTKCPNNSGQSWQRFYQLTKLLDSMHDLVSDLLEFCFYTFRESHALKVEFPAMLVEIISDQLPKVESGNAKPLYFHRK
Method in brief: as §1

[3] = biological target: T3, CYP3A4 (Homo sapiens, UniProt P08684); test: Assay to assess irreversible CYP3A4 inhibition (mechanism-based inhibition) in human liver microsomes; assay type: in vitro ADME; conditions: CYP3A4 activity as 6β-hydroxytestosterone formation, 2-20 μM
T3 construct: using human liver microsomes (pool from various individuals); from tissue; host or cells: human liver microsomes (pool from various individuals)
Source text: 8. Assay to Assess Irreversible CYP3A4 Inhibition
Cytochrom P450 enzyme inhibition, especially irreversible enzyme inhibition, also referred to as mechanism-based inhibition (MBI), is an unwanted metabolic property of a substance which may, on concurrent administration of other medicaments, lead to considerable drug interactions. Criteria for the presence of an irreversible inhibition are a time-, concentration- and cofactor- (nicotinamide adenine dinucleotide phosphate, NADPH) dependent inhibition. To this end, the compounds of the invention are incubated in vitro with human liver microsomes, the influence on the CYP3A4 activity and the metabolic degradation of the novel active ingredient is determined, and the prototypical parameters kinact, Ki and the partition ratio r are ascertained therefrom.
The compounds of the invention are incubated with concentrations of 2-20 μM. To this end, stock solutions of the active ingredients with a concentration of 0.2-2 mM are prepared in acetonitrile and then pipetted with a 1:100 dilution into the incubation mixture. The liver microsomes are incubated in 50 mM potassium phosphate buffer (pH 7.4) with and without NADPH-generating system consisting of 1 mM NADP^+, 5 mM glucose 6-phosphate and 1 unit of glucose 6-phosphate dehydrogenase, at 37° C. After defined preincubation times of 0-50 min, aliquots are removed from these mixtures, diluted 1:25 in a new incubation, and incubated in the presence of testosterone and new NADPH-generating system again for 20 min. These incubation mixtures are stopped with acetonitrile (final concentration about 30% v/v), and the protein is removed by centrifugation at about 15 000×g. The samples stopped in this way are either analyzed directly or stored at −20° C. until analyzed.
The analysis takes place by high performance liquid chromatography with mass spectrometry detection (LC-MS). The formation of 6β-hydroxytestosterone as measure of CYP3A4 activity, and the test substance still remaining is quantified. The parameters kinact, Ki and the partition ratio r are determined therefrom so as to assess the novel active ingredients in relation to MBI.

[4] = biological target: T4, progesterone receptor (PR) (Homo sapiens, UniProt P06401); test: Cellular in vitro assay, GAL4-PR chimera luciferase reporter in CHO K1 cells (selectivity); assay type: cell-based; conditions: antagonism vs progesterone; CHO K1 GAL4-PR LBD luciferase reporter
T4 construct: of the progesterone receptor (PR, amino acids 680-933); expressed in transfected cells; host or cells: CHO K1
T4 sequence (P06401 680-933): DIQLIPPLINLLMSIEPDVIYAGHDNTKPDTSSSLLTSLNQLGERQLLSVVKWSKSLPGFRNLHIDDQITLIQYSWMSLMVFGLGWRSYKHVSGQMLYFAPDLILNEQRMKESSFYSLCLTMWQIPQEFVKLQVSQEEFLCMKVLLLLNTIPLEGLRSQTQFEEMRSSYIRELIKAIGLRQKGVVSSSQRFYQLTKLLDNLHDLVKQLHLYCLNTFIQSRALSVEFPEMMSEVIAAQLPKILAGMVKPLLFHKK
Method in brief: as §1

[5] = biological target: T3, CYP3A4; test: CYP inhibition assay with human liver microsomes; assay type: in vitro ADME
Source text: Inhibitory properties of an active ingredient on the cytochromes P450 (CYP) of the human body may entail extensive clinical effects (drug interactions) because most of the prescribed medicaments are degraded (metabolized) by these enzymes. The ones involved in this are in particular the CYP isoenzymes of the 1A and 2C families, CYP2D6 and, with a proportion of almost 50%, CYP3A4. In order to preclude or minimize these possible drug interactions (Drug-Drug Interactions, DDI), the ability of substances to be able to inhibit CYP1A2, CYP2C8, CYP2C9, CYP2D6 and CYP3A4 in humans is investigated using human liver microsomes (pool from various individuals). This takes place by measuring CYP isoform-specific metabolites formed from standard substrates such as, for example, phenacetin, amodiaquin, diclofenac, dextromethorphan, midazolam and testosterone. The inhibitory effects are investigated at six different concentrations of the test compounds (1.5, 3.1, 6.3, 12.5, 25 and 50 μM as maximum concentration or 0.6, 1.3, 2.5, 5, 10 and 20 μM as maximum concentration), comparing with the extent of the CYP isoform-specific metabolite formation of the standard substrates in the absence of the test compounds, and calculating the corresponding IC50 values. CYP isoform-specific standard inhibitors such as, for example, fluvoxamine, quercetin, sulfaphenazole, fluoxetine and ketoconazole serve as control of the results obtained. In order to obtain indications of the possible mechanism-based inhibitors (MBI) on CYP3A4, the human liver microsomes are incubated in the presence of the inhibitor to be investigated for 30 minutes before the addition of midazolam or testosterone as standard substrates of CYP3A4. A reduction in the IC50 obtained by comparison with the mixture without preincubation serves as an indicator of a mechanism-based inhibition. Mibefradil serves as positive control.
The incubations of the standard substrates with human liver microsomes (23-233 μg/mL) in the presence of the test compound (as potential inhibitor) are carried out in 96-well plates in a workstation (Tecan, Genesis, Crailsheim, Germany) at 37° C. The incubation times are 15-20 minutes. The test compounds are preferably dissolved in acetonitrile (1.0 or 2.5 mM stock solution). The 96-well plates are produced by sequential addition of a stock solution of NADP+, EDTA, glucose 6-phosphate and glucose-6-phosphate dehydrogenase in phosphate buffer (pH 7.4), the test compound, and a solution of standard substrate and human liver microsomes in phosphate buffer (pH 7.4). The total volume is 200 μl. The corresponding control incubations with and without standard inhibitor also take place on the 96-well plate. The incubations are stopped after the respective incubation time by adding 100 μl of acetonitrile in which there is a suitable internal standard. Precipitated proteins are removed by centrifugation (3000 rpm, 10 minutes, 10° C.). The resulting supernatants of the respective plates are combined on one plate and analyzed by LC-MS/MS. The […] values are generated from the resulting measured data and used to assess the inhibitory potential of the test compound.

T3 sequence (P08684 whole entry): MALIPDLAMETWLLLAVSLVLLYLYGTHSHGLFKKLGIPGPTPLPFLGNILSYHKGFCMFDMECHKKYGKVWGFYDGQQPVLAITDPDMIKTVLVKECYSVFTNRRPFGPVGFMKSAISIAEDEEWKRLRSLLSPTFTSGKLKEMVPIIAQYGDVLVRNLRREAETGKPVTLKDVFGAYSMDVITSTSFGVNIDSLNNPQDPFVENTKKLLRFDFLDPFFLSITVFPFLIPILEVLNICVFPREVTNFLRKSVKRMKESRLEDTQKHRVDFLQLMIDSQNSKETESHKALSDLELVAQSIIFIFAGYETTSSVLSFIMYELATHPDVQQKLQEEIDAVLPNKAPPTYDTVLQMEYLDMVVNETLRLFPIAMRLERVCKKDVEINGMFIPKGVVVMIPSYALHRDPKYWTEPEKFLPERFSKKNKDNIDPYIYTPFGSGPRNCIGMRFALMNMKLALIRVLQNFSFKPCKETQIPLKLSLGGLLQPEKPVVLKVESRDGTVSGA

IC50 [1] [µM]	IC50 [2] [µM]	Partition ratio r [3]	IC50 [4] [µM]	IC50 ([5]; 30 min preincubation with test compound before substrate, read-out: CYP 3A4 Preincubation, 30 min.) [µM]	IC50 ([5]; without preincubation, read-out: CYP 3A4 Coincubation) [µM]	Compound
1.29	0.007	>200	3	–	–	CS(=O)(=O)Cc1cc(F)cc2c(C(c3ccc(F)cc3Cl)C3CC3C#N)c[nH]c12 (single isomer, unassigned) [Example 266-1, 2-[(2-Chloro-4-fluorophenyl){5-fluoro-7-[(methylsulfonyl)methyl]-1H-indol-3-yl}methyl]cyclopropanecarbonitrile]
3.9	0.008	>200	10	–	–	CS(=O)(=O)Cc1cc(F)cc2c(C(c3ccc(Cl)cc3)C3CC3C#N)c[nH]c12 (single isomer, unassigned) [Example 277-1-1, 2-[(4-Chlorophenyl){5-fluoro-7-[(methylsulfonyl)methyl]-1H-indol-3-yl}methyl]cyclopropane-carbonitrile]
–	–	250	–	11.2	> 20	CS(=O)(=O)Cc1cccc2c(C(c3ccc(F)cc3)c3ccc(Cl)cc3F)c[nH]c12 (single isomer, unassigned) [Example 118-1, 3-[(4-Chloro-2-fluorophenyl)(4-fluorophenyl)methyl]-7-[(methylsulfonyl)methyl]-1H-indole]
5.67	0.09	100	4.07	–	–	CS(=O)(=O)Cc1cccc2c(C(CCC#N)c3ccc(C(F)(F)F)cc3)c[nH]c12 (single isomer, unassigned) [Example 56-1, 4-{7-[(Methylsulfonyl)methyl]-1H-indol-3-yl}-4-[4-(trifluoromethyl)phenyl]butanonitrile]

From patent US20110201564A1, “SUBSTITUTED 7-SULFANYLMETHYL, 7-SULFINYLMETHYL AND 7-SULFONYLMETHYL INDOLES AND USE THEREOF” (BAYER SCHERING PHARMA AKTIENGESELLSCHAFT, priority 2008, published 2011)
